Read-outs that look alike come from different tables or passages of the source.
Assays:
Type in all cases: cell-based
[1] = tested on: HT29; test: In-Vitro Testing SRB panel: Colon Cancer
[2] = tested on: SK-OV-3; test: In-Vitro Testing SRB panel: Ovarian Cancer
[3] = tested on: MDA-N; test: In-Vitro Testing SRB panel: Breast Cancer
[4] = tested on: NCI-H23
[5] = In-Vitro Testing SRB panel: Renal Cancer
[6] = tested on: ROP-62
[7] = tested on: SNB-19; test: In-Vitro Testing SRB panel: CNS Cancer
[8] = tested on: SW-620; test: In-Vitro Testing SRB panel: Colon Cancer
[9] = tested on: panel of human cancer cells; test: In vitro screening, SRB, panel of 60 human cancer cell lines
[10] = tested on: OVCAR-5; test: In-Vitro Testing SRB panel: Ovarian Cancer
[11] = tested on: SK-MEL-2B; test: In-Vitro Testing SRB panel: Melanoma
[12] = tested on: SN12C; test: In-Vitro Testing SRB panel: Renal Cancer
[13] = tested on: NCI-H226
[14] = tested on: SF-268; test: In-Vitro Testing SRB panel: CNS Cancer
[15] = tested on: T-47D; test: In-Vitro Testing SRB panel: Breast Cancer
[16] = tested on: PC-3; test: In-Vitro Testing SRB panel: Prostate Cancer
[17] = tested on: OVCAR-8; test: In-Vitro Testing SRB panel: Ovarian Cancer
[18] = tested on: RPMI-8226; test: In-Vitro Testing SRB panel: Leukemia
[19] = Homo sapiens, read-out: LC50 (the source's name)

Which results are given for `COc1ccc2c(c1)CN(C(=O)c1ccc([N+](=O)[O-])cc1)c1ccc(Cl)cc1C2c1ccccc1Cl` (stereo not shown) [Compound 30]?
TGI ([1]; HT29): >1.00E−04 Molar; Percent Growth ([1]; HT29, Log10 concentration −4.0 Molar): 20%; Percent Growth ([1]; HT29, Log10 concentration −5.0 Molar): 22%; Percent Growth ([1]; HT29, Log10 concentration −6.0 Molar): 70%; Percent Growth ([1]; HT29, Log10 concentration −7.0 Molar): 93%; Percent Growth ([1]; HT29, Log10 concentration −8.0 Molar): 91%; GI50 ([1]; Homo sapiens, HT-29): 2.63 µM; CC50 ([1]; Homo sapiens, HT-29, HT29, read-out: LC50 (the source's name)): > 100 µM; GI50 ([2]; Homo sapiens, SK-OV-3): > 100 µM; CC50 ([2]; Homo sapiens, SK-OV-3, read-out: LC50 (the source's name)): > 100 µM; TGI ([2]; SK-OV-3): >1.00E−04 Molar; Percent Growth ([2]; SK-OV-3, Log10 concentration −4.0 Molar): 66%; Percent Growth ([2]; SK-OV-3, Log10 concentration −5.0 Molar): 76%; Percent Growth ([2]; SK-OV-3, Log10 concentration −6.0 Molar): 88%; Percent Growth ([2]; SK-OV-3, Log10 concentration −7.0 Molar): 95%; Percent Growth ([2]; SK-OV-3, Log10 concentration −8.0 Molar): 93%; TGI [3]: >1.00E−04 Molar; CC50 [3, 19]: > 100 µM; Percent Growth ([3]; Log10 concentration −4.0 Molar): 51%; Percent Growth ([3]; Log10 concentration −5.0 Molar): 39%; Percent Growth ([3]; Log10 concentration −6.0 Molar): 83%; Percent Growth ([3]; Log10 concentration −7.0 Molar): 93%; Percent Growth ([3]; Log10 concentration −8.0 Molar): 101%; GI50 ([4]; Homo sapiens, NCI-H23): > 100 µM; CC50 ([4]; Homo sapiens, NCI-H23, read-out: LC50 (the source's name)): > 100 µM; TGI ([4]; NCI-H23): >1.00E−04 Molar; Percent Growth ([4]; NCI-H23, Log10 concentration −4.0 Molar): 55%; Percent Growth ([4]; NCI-H23, Log10 concentration −5.0 Molar): 60%; Percent Growth ([4]; NCI-H23, Log10 concentration −6.0 Molar): 84%; Percent Growth ([4]; NCI-H23, Log10 concentration −7.0 Molar): 97%; Percent Growth ([4]; NCI-H23, Log10 concentration −8.0 Molar): 93%; GI50 ([5]; Homo sapiens): 7.81 µM; CC50 ([5]; Homo sapiens, OO-31, read-out: LC50 (the source's name)): > 100 µM; TGI ([5]; OO-31): >1.00E−04 Molar; Percent Growth ([5]; OO-31, Log10 concentration −4.0 Molar): 43%; Percent Growth ([5]; OO-31, Log10 concentration −5.0 Molar): 43%; Percent Growth ([5]; OO-31, Log10 concentration −6.0 Molar): 107%; Percent Growth ([5]; OO-31, Log10 concentration −7.0 Molar): 94%; Percent Growth ([5]; OO-31, Log10 concentration −8.0 Molar): 98%; GI50 ([6]; Homo sapiens): > 100 µM; CC50 ([6]; Homo sapiens, ROP-62, read-out: LC50 (the source's name)): > 100 µM; TGI ([6]; ROP-62): >1.00E−04 Molar; Percent Growth ([6]; ROP-62, Log10 concentration −4.0 Molar): 50%; Percent Growth ([6]; ROP-62, Log10 concentration −5.0 Molar): 67%; Percent Growth ([6]; ROP-62, Log10 concentration −6.0 Molar): 95%; Percent Growth ([6]; ROP-62, Log10 concentration −7.0 Molar): 102%; Percent Growth ([6]; ROP-62, Log10 concentration −8.0 Molar): 96%; GI50 ([7]; Homo sapiens, SNB-19): 8.22 µM; CC50 ([7]; Homo sapiens, SNB-19, read-out: LC50 (the source's name)): > 100 µM; TGI ([7]; SNB-19): >1.00E−04 Molar; Percent Growth ([7]; SNB-19, Log10 concentration −4.0 Molar): 37%; Percent Growth ([7]; SNB-19, Log10 concentration −5.0 Molar): 47%; Percent Growth ([7]; SNB-19, Log10 concentration −6.0 Molar): 86%; Percent Growth ([7]; SNB-19, Log10 concentration −7.0 Molar): 90%; Percent Growth ([7]; SNB-19, Log10 concentration −8.0 Molar): 95%; GI50 ([8]; Homo sapiens, SW-620): > 100 µM; CC50 ([8]; Homo sapiens, SW-620, read-out: LC50 (the source's name)): > 100 µM; TGI ([8]; SW-620): >1.00E−04 Molar; Percent Growth ([8]; SW-620, Log10 concentration −4.0 Molar): 56%; Percent Growth ([8]; SW-620, Log10 concentration −5.0 Molar): 57%; Percent Growth ([8]; SW-620, Log10 concentration −6.0 Molar): 87%; Percent Growth ([8]; SW-620, Log10 concentration −7.0 Molar): 99%; Percent Growth ([8]; SW-620, Log10 concentration −8.0 Molar): 102%; activity against the human cell panel [9]: exhibited activity against the human cell panel; GI50 ([10]; Homo sapiens, OVCAR-5): > 100 µM; CC50 ([10]; Homo sapiens, OVCAR-5, read-out: LC50 (the source's name)): > 100 µM; TGI ([10]; OVCAR-5): >1.00E−04 Molar; Percent Growth ([10]; OVCAR-5, Log10 concentration −4.0 Molar): 78%; Percent Growth ([10]; OVCAR-5, Log10 concentration −5.0 Molar): 86%; Percent Growth ([10]; OVCAR-5, Log10 concentration −6.0 Molar): 98%; Percent Growth ([10]; OVCAR-5, Log10 concentration −7.0 Molar): 106%; Percent Growth ([10]; OVCAR-5, Log10 concentration −8.0 Molar): 102%; GI50 ([11]; Homo sapiens, SK-MEL-28): > 100 µM; CC50 ([11]; Homo sapiens, SK-MEL-28, read-out: LC50 (the source's name)): > 100 µM; TGI ([11]; SK-MEL-28): >1.00E−04 Molar; Percent Growth ([11]; SK-MEL-28, Log10 concentration −4.0 Molar): 65%; Percent Growth ([11]; SK-MEL-28, Log10 concentration −5.0 Molar): 70%; Percent Growth ([11]; SK-MEL-28, Log10 concentration −6.0 Molar): 86%; Percent Growth ([11]; SK-MEL-28, Log10 concentration −7.0 Molar): 100%; Percent Growth ([11]; SK-MEL-28, Log10 concentration −8.0 Molar): 101%; TGI [12]: >1.00E−04 Molar; GI50 ([12]; Homo sapiens): 6.32 µM; CC50 [12, 19]: > 100 µM; Percent Growth ([12]; Log10 concentration −4.0 Molar): 45%; Percent Growth ([12]; Log10 concentration −5.0 Molar): 41%; Percent Growth ([12]; Log10 concentration −6.0 Molar): 87%; Percent Growth ([12]; Log10 concentration −7.0 Molar): 90%; Percent Growth ([12]; Log10 concentration −8.0 Molar): 100%; GI50 ([13]; Homo sapiens, NCI-H226): 3.98 µM; CC50 ([13]; Homo sapiens, NCI-H226, read-out: LC50 (the source's name)): > 100 µM; TGI ([13]; NCI-H226): >1.00E−04 Molar; Percent Growth ([13]; NCI-H226, Log10 concentration −4.0 Molar): 34%; Percent Growth ([13]; NCI-H226, Log10 concentration −5.0 Molar): 35%; Percent Growth ([13]; NCI-H226, Log10 concentration −6.0 Molar): 73%; Percent Growth ([13]; NCI-H226, Log10 concentration −7.0 Molar): 79%; Percent Growth ([13]; NCI-H226, Log10 concentration −8.0 Molar): 83%; GI50 ([14]; Homo sapiens, SF-268): 3.08 µM; CC50 ([14]; Homo sapiens, SF-268, read-out: LC50 (the source's name)): > 100 µM; TGI ([14]; SF-268): >1.00E−04 Molar; Percent Growth ([14]; SF-268, Log10 concentration −4.0 Molar): 21%; Percent Growth ([14]; SF-268, Log10 concentration −5.0 Molar): 30%; Percent Growth ([14]; SF-268, Log10 concentration −6.0 Molar): 69%; Percent Growth ([14]; SF-268, Log10 concentration −7.0 Molar): 115%; Percent Growth ([14]; SF-268, Log10 concentration −8.0 Molar): 104%; GI50 ([15]; Homo sapiens, T47D): 2.87 µM; CC50 ([15]; Homo sapiens, T47D, T-47D, read-out: LC50 (the source's name)): > 100 µM; TGI ([15]; T-47D): >1.00E−04 Molar; Percent Growth ([15]; T-47D, Log10 concentration −4.0 Molar): 18%; Percent Growth ([15]; T-47D, Log10 concentration −5.0 Molar): 23%; Percent Growth ([15]; T-47D, Log10 concentration −6.0 Molar): 71%; Percent Growth ([15]; T-47D, Log10 concentration −7.0 Molar): 96%; Percent Growth ([15]; T-47D, Log10 concentration −8.0 Molar): 92%; GI50 ([16]; Homo sapiens, PC-3): 1.33 µM; CC50 ([16]; Homo sapiens, PC-3, read-out: LC50 (the source's name)): > 100 µM; TGI ([16]; PC-3): >1.00E−04 Molar; Percent Growth ([16]; PC-3, Log10 concentration −4.0 Molar): 30%; Percent Growth ([16]; PC-3, Log10 concentration −5.0 Molar): 29%; Percent Growth ([16]; PC-3, Log10 concentration −6.0 Molar): 53%; Percent Growth ([16]; PC-3, Log10 concentration −7.0 Molar): 103%; Percent Growth ([16]; PC-3, Log10 concentration −8.0 Molar): 100%; GI50 ([17]; Homo sapiens, OVCAR-8): 7.72 µM; CC50 ([17]; Homo sapiens, OVCAR-8, read-out: LC50 (the source's name)): > 100 µM; TGI ([17]; OVCAR-8): >1.00E−04 Molar; Percent Growth ([17]; OVCAR-8, Log10 concentration −4.0 Molar): 48%; Percent Growth ([17]; OVCAR-8, Log10 concentration −5.0 Molar): 46%; Percent Growth ([17]; OVCAR-8, Log10 concentration −6.0 Molar): 84%; Percent Growth ([17]; OVCAR-8, Log10 concentration −7.0 Molar): 95%; Percent Growth ([17]; OVCAR-8, Log10 concentration −8.0 Molar): 96%; GI50 ([18]; Homo sapiens, RPMI-8226): 0.953 µM; CC50 ([18]; Homo sapiens, RPMI-8226, read-out: LC50 (the source's name)): > 100 µM; TGI ([18]; RPMI-8226): >1.00E−04 Molar; Percent Growth ([18]; RPMI-8226, Log10 concentration −4.0 Molar): 36%; Percent Growth ([18]; RPMI-8226, Log10 concentration −5.0 Molar): 30%; Percent Growth ([18]; RPMI-8226, Log10 concentration −6.0 Molar): 49%; Percent Growth ([18]; RPMI-8226, Log10 concentration −7.0 Molar): 100%; Percent Growth ([18]; RPMI-8226, Log10 concentration −8.0 Molar): 86%
